Laboratory results as given in PMC4147775, “Stimulation of Hepatic Apolipoprotein A-I Production by Novel Thieno-Triazolodiazepines: Roles of the Classical Benzodiazepine Receptor, PAF Receptor, and Bromodomain Binding” (Lipid insights, 2013).
Where two headings read alike, the source gives them in different places.

Experiments:
[1] = target: T1, BRD2(1) (Homo sapiens, UniProt P25440); experiment: Protein stability shift assay (thermal shift), BRD2(1); assay type: binding; conditions: 10 μM ligand
T1 construct: the second as compared with the first bromodomain of these BRDs

[2] = target: T2, BRD2(2) (Homo sapiens, UniProt P25440); experiment: Protein stability shift assay (thermal shift), BRD2(2); assay type: binding; conditions: 10 μM ligand
T2 construct: the second as compared with the first bromodomain of these BRDs

[3] = target: T3, BRD3(1) (Homo sapiens, UniProt Q15059); experiment: Protein stability shift assay (thermal shift), BRD3(1); assay type: binding; conditions: 10 μM ligand
T3 construct: the second as compared with the first bromodomain of these BRDs

[4] = target: T4, BRD4(2) (Homo sapiens, UniProt O60885); experiment: Protein stability shift assay (thermal shift), BRD4(2); assay type: binding; conditions: 10 μM ligand
T4 construct: the second as compared with the first bromodomain of these BRDs

[5] = target: T5, BRDT(1) (Homo sapiens, UniProt Q58F21); experiment: Protein stability shift assay (thermal shift), BRDT(1); assay type: binding; conditions: 10 μM ligand
T5 construct: the second as compared with the first bromodomain of these BRDs

[6] = target: T6, BRDT(2) (Homo sapiens, UniProt Q58F21); experiment: Protein stability shift assay (thermal shift), BRDT(2); assay type: binding; conditions: 10 μM ligand
T6 construct: the second as compared with the first bromodomain of these BRDs

[7] = target: T7, BAZ2B (Homo sapiens, UniProt Q9UIF8); experiment: Protein stability shift assay (thermal shift), BAZ2B; assay type: binding; conditions: 10 μM ligand
T7 construct: Thermal shift (Δtm^obs) of human bromodomains in the presence of 10 μM compound
T7 sequence (Q9UIF8 2060-2164 limits assumed): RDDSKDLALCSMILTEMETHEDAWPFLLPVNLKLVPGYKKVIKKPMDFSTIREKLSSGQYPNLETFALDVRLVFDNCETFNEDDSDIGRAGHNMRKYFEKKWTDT

[8] = target: T8, CREBBP (Homo sapiens, UniProt Q92793); experiment: Protein stability shift assay (thermal shift), CREBBP; assay type: binding; conditions: 10 μM ligand
T8 construct: Thermal shift (Δtm^obs) of human bromodomains in the presence of 10 μM compound

[9] = target: T9, PB1(5) (Homo sapiens, UniProt Q86U86); experiment: Protein stability shift assay (thermal shift), PB1(5); assay type: binding; conditions: 10 μM ligand
T9 construct: Thermal shift (Δtm^obs) of human bromodomains in the presence of 10 μM compound

[10] = target: T10, PCAF (Homo sapiens, UniProt Q92831); experiment: Protein stability shift assay (thermal shift), PCAF; assay type: binding; conditions: 10 μM ligand
T10 construct: Thermal shift (Δtm^obs) of human bromodomains in the presence of 10 μM compound
T10 sequence (Q92831 723-827 limits assumed): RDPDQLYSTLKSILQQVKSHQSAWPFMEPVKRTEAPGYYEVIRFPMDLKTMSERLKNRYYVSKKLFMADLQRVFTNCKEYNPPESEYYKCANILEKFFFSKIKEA

[11] = test system: recombinant BRD3 domains; experiment: Bromodomain inhibition assay (Alphascreen), acetylated histone H4 peptide displacement, BRD3; assay type: biochemical; conditions: domains 1 and 2, result in words (Figure 4)
[12] = test system: recombinant BRD4 domains; experiment: Bromodomain inhibition assay (Alphascreen), acetylated histone H4 peptide displacement, BRD4; assay type: biochemical; conditions: domains 1 and 2, result in words (Figure 4)
[13] = test system: apoA-I production by primary human hepatocytes; experiment: apoA-I production by primary human hepatocytes (ELISA); assay type: cell-based; conditions: cultured human hepatocytes, 72 hours, maximal stimulation
[14] = test system: central BZD receptor; experiment: Binding to central BZD receptor, 3H-flunitrazepam, rat cerebral cortex membranes; conditions: for competition with labeled flunitrazepam: rat brain membranes, result in words (Figure 3A)
[15] = target: T11, human recombinant PAF receptor (Homo sapiens, UniProt P25105); experiment: Binding to PAF receptor, 3H-C16-PAF, CHO cells; conditions: for competition with labeled PAF: cells expressing the human PAF receptor, result in words (Figure 3B)
T11 construct: expressed in transfected cells; host or cells: CHO cells

[16] = Metabolic stability in human hepatocytes; assay type: in vitro ADME; conditions: cryopreserved human hepatocytes, read-out: stability in human hepatocytes (% remaining after 120 min)
[17] = Cytotoxicity: ATP level (Cell Titer Glo); assay type: cell-based, human; conditions: 72 hours; for ATP level in human hepatocytes: result in words
[18] = test system: fibrosarcoma cells (HT1080); experiment: Cytotoxicity: mitochondrial membrane potential (TMRM); conditions: for mitochondrial membrane potential in fibrosarcoma cells: 100 μM, result in words; for IC50: read-out: mitochondrial membrane potential in fibrosarcoma cells, IC50
[19] = target: T12, BRD3(2) (Homo sapiens, UniProt Q15059); experiment: Protein stability shift assay (thermal shift), BRD3(2); assay type: binding; parameters: the second as compared with the first bromodomain of these BRDs; conditions: 10 μM ligand
[20] = target: T13, BRD4(1) (Homo sapiens, UniProt O60885); experiment: Protein stability shift assay (thermal shift), BRD4(1); assay type: binding; parameters: the second as compared with the first bromodomain of these BRDs; conditions: 10 μM ligand
[21] = target: T12, BRD3(2); experiment: Isothermal titration calorimetry, BRD3(2); assay type: binding; parameters: 2 μM for the first bromodomain in BRD4 and 0.5 μM for the second bromodomain in BRD3; conditions: ITC
[22] = target: T13, BRD4(1); experiment: Isothermal titration calorimetry, BRD4(1); assay type: binding; parameters: 2 μM for the first bromodomain in BRD4 and 0.5 μM for the second bromodomain in BRD3; conditions: ITC
[23] = test system: apoA-I; parameters: method as in PMID 21449977; conditions: mice transgenic for human apoA-I; cited from earlier work
[24] = test system: fibrosarcoma cells (HT1080); conditions: read-out: mitochondrial membrane potential, IC50, cited from earlier work
[25] = test system: apoA-I production by Hep-G2 cells; experiment: apoA-I production by HepG2 cells (ELISA); assay type: cell-based, human; conditions: result in words (Figure 5)
Procedure: On the day of the experiment, supernatant medium was discarded and replaced by a solution of test compounds in HCM™ medium, which was prepared from DMSO stock solutions immediately before use. Stock solution concentrations assured that DMSO never exceeded 0.1% in the assay, as DMSO alone exerts significant effects on hepatocyte gene expression. Each concentration was run in triplicate whereas multiple wells were prepared for vehicle (DMSO) controls. The cells were cultured in the presence of the studied compounds and DMSO control for 72 hours at 37°C in 5% CO2 in air. The supernatants were replaced by a fresh dilution of test compounds after 24 hours and 48 hours, respectively. […]
After removal of the supernatants after 72 hours, all wells were washed 3 times with 200 μL isotonic 0.29 MD-mannitol and 25 μL d H2O was added to each well. The protein content of each well was determined using the Pierce® BCA Protein Assay Kit according to kit instructions and calculated as micrograms cellular protein per well.
For apoA-I detection, the human apoA1 ELISA kit from Mabtech Nacka, Sweden (Catalog no. 3710-1H-20) was used. […] Finally, the chromogenic substrate was added, and absorbance was measured at 450 nm.
The apoA-I content of each sample was calculated using the standard curve generated with each plate and was expressed as ng apoA-I per mg of cellular protein.

T1 sequence (P25440 74-180 limits assumed): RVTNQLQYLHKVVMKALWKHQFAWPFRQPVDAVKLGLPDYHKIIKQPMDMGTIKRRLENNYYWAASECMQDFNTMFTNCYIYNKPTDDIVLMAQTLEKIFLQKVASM
T2 sequence (P25440 344-453 limits assumed): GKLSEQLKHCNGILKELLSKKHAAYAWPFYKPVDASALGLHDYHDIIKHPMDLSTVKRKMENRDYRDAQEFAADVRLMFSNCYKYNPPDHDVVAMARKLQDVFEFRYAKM
T8 sequence (Q92793 1085-1192 limits assumed): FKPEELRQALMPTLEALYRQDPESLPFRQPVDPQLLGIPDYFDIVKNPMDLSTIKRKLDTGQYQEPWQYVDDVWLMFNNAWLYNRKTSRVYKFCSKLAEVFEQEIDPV
T9 sequence (Q86U86 653-763 limits assumed): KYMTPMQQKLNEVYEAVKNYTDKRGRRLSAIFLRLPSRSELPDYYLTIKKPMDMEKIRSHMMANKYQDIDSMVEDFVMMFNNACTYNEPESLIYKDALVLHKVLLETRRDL
T11 sequence (P25105 whole entry): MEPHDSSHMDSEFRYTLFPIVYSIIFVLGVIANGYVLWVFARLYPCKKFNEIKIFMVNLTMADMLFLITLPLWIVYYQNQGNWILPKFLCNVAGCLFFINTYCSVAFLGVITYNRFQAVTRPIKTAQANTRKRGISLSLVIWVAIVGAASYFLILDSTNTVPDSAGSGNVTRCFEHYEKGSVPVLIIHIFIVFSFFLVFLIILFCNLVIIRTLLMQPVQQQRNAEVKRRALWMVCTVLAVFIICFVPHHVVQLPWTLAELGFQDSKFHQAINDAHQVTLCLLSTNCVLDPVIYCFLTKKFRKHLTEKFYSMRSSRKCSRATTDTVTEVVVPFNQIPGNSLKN
T3 sequence (Q15059 34-140 limits assumed): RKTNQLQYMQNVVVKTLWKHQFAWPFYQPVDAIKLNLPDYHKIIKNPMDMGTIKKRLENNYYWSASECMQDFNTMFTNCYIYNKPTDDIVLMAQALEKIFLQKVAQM
T12 sequence (Q15059 306-415 limits assumed): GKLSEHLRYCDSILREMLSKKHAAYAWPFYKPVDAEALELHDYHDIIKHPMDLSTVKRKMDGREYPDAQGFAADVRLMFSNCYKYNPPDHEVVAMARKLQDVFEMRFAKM

## Cc1nnc2n1-c1sccc1C(c1ccccc1)=NC2(C)C [MDCO-3770]
[1]
  Thermal shift (ΔTm obs) BRD2(1): −1.1
[2]
  Thermal shift (ΔTm obs) BRD2(2): 0.0
[3]
  Thermal shift (ΔTm obs) BRD3(1): −0.2
[4]
  Thermal shift (ΔTm obs) BRD4(2): 2.5
[5]
  Thermal shift (ΔTm obs) BRDT(1): −0.9
[6]
  Thermal shift (ΔTm obs) BRDT(2): 0.3
[7]
  Thermal shift (ΔTm obs) BAZ2B: −0.4
[8]
  Thermal shift (ΔTm obs) CREBBP: −0.6
[9]
  Thermal shift (ΔTm obs) PB1(5): −0.5
[10]
  Thermal shift (ΔTm obs) PCAF: 1.5
[11]
  inhibition of binding of acetylated histone H4 peptide to BRD3 domains: clearly more potent than the other 2 thieno-TZDs
[12]
  inhibition of binding of acetylated histone H4 peptide to BRD4 domains: clearly more potent than the other 2 thieno-TZDs
[13]
  stimulation of apoA-I production: up to 3 fold
[14]
  competition with labeled flunitrazepam: did not compete
[15]
  competition with labeled PAF: only weakly displaced
[16]; donor 2, 10 μM
  remaining at 2 h, 10 μM: 97%
[17]; 100 μM
  ATP level in human hepatocytes: no effect at 100 μM (n = 3)
[18]; 72 hours
  mitochondrial membrane potential in fibrosarcoma cells: no effect at 100 μM (n = 5)
[19]
  Thermal shift (ΔTm obs) BRD3(2): 5.3
[20]
  Thermal shift (ΔTm obs) BRD4(1): 3.3
[21]; BRD3(2), 15°C
  TΔS: 0.04 kcal/mol
  ΔH obs: -4.62 ± 0.042 kcal/mol
[21]; BRD3(2), 15°C, single binding site model
  N: 1.02 ± 0.006
[21]; KD, BRD3(2), 15°C, reverse titration
  Kd: 513 ± 40.5 nM
[21]; binding affinity, second bromodomain in BRD3, rounded in text
  Kd: 500 nM
[22]; BRD4(1), 15°C
  TΔS: 0.01 kcal/mol
  ΔG: -6.71 kcal/mol
  ΔH obs: -6.71 ± 0.103 kcal/mol
[22]; BRD4(1), 15°C, single binding site model
  N: 0.99 ± 0.011
[22]; KD, BRD4(1), 15°C, reverse titration
  Kd: 2060 ± 141 nM
[22]; binding affinity, first bromodomain in BRD4, rounded in text
  Kd: 2000 nM

## Cc1nnc2n1-c1sccc1C(c1ccccc1)=NC2 [MDCO-3760]
[1]
  Thermal shift (ΔTm obs) BRD2(1): 0.1
[2]
  Thermal shift (ΔTm obs) BRD2(2): 2.6
[3]
  Thermal shift (ΔTm obs) BRD3(1): 1.9
[4]
  Thermal shift (ΔTm obs) BRD4(2): 2.8
[5]
  Thermal shift (ΔTm obs) BRDT(1): 0.4
[6]
  Thermal shift (ΔTm obs) BRDT(2): 3.2
[7]
  Thermal shift (ΔTm obs) BAZ2B: 0.1
[8]
  Thermal shift (ΔTm obs) CREBBP: −0.1
[9]
  Thermal shift (ΔTm obs) PB1(5): −4.7
[10]
  Thermal shift (ΔTm obs) PCAF: 2.2
[13]
  stimulation of apoA-I production: up to 3 fold
[14]
  competition with labeled flunitrazepam: able to compete
[15]
  competition with labeled PAF: able to compete
[16]; donor 1, 10 μM
  remaining at 2 h, 10 μM: 105%
[17]; 100 μM
  ATP level in human hepatocytes: no effect at 100 μM (n = 3)
[23]
  plasma levels of apoA-I: increased
[18]; 72 hours
  mitochondrial membrane potential in fibrosarcoma cells: no effect at 100 μM (n = 5)
[19]
  Thermal shift (ΔTm obs) BRD3(2): 3.0
[20]
  Thermal shift (ΔTm obs) BRD4(1): 2.7

## CN1C(=O)CN=C(c2ccccc2)c2cc(Cl)ccc21 [Diazepam, reference compound]
[14]; 3H-flunitrazepam, rat cerebral cortex membranes, reference
  IC50: 20 nM

## COCc1c(C(C)C)nc(C(C)C)c(/C=C/[C@@H](O)C[C@@H](O)CC(=O)O)c1-c1ccc(F)cc1 [Cerivastatin]
[17]; 20 μM
  ATP level in human hepatocytes, reduction: 59 ± 10% reduction at 20 μM (n = 3)
[24]; ref CEREP Cytotoxicity Application Note
  IC50: 660 nM
[24]; ref CEREP study report 14547
  IC50: 1100 nM
[24]; ref O’Brien et al. Arch toxicol. 2006;80:580–604
  IC50: 3000 nM
[18]; Homo sapiens, HT-1080, 72 h
  IC50: 2600 nM

## CCCCCCCCCCCCCCCCOC[C@H](COP(=O)([O-])OCC[N+](C)(C)C)OC(C)=O [C16-PAF, reference compound]
[15]; 3H-C16-PAF, CHO cells expressing human recombinant PAF receptor, reference
  IC50: 0.7 nM

## C[C@]12CC[C@H]3[C@@H](CCC4=CC(=O)CC[C@@]43C)[C@@H]1CC[C@@H]2O [Testosterone, reference compound]
[16]; donor 1, 10 μM
  remaining at 2 h, 10 μM: 64%

## Cc1nnc2n1-c1sccc1C(c1ccc3c(c1)OCO3)=NC2 [MDCO-3783]
[1]
  Thermal shift (ΔTm obs) BRD2(1): 0.3
[2]
  Thermal shift (ΔTm obs) BRD2(2): 1.8
[3]
  Thermal shift (ΔTm obs) BRD3(1): 1.8
[4]
  Thermal shift (ΔTm obs) BRD4(2): 1.9
[5]
  Thermal shift (ΔTm obs) BRDT(1): 0.3
[6]
  Thermal shift (ΔTm obs) BRDT(2): 2.4
[7]
  Thermal shift (ΔTm obs) BAZ2B: 0.0
[8]
  Thermal shift (ΔTm obs) CREBBP: −0.1
[9]
  Thermal shift (ΔTm obs) PB1(5): 0.0
[10]
  Thermal shift (ΔTm obs) PCAF: 1.9
[13]
  stimulation of apoA-I production: up to 3 fold
[25]
  effect on apoA-I production: potency and efficacy comparable to that of (−)-JQ1
[14]
  competition with labeled flunitrazepam: did not compete
[15]
  competition with labeled PAF: only weakly displaced
[16]; donor 1, 10 μM
  remaining at 2 h, 10 μM: 97%
[17]; 100 μM
  ATP level in human hepatocytes: no effect at 100 μM (n = 3)
[18]; 72 hours
  mitochondrial membrane potential in fibrosarcoma cells: no effect at 100 μM (n = 5)
[19]
  Thermal shift (ΔTm obs) BRD3(2): 2.1
[20]
  Thermal shift (ΔTm obs) BRD4(1): 2.4

## N#CC(C#N)=NNc1ccc(OC(F)(F)F)cc1 [FCCP, reference compound]
[17]; 100 μM
  ATP level in human hepatocytes, reduction: 96 ± 0.7% reduction at 100 μM (n = 2)
[18]; 72 hours
  IC50: 17000 nM

## O=C(O)Cc1ccccc1Nc1c(Cl)cccc1Cl [Diclofenac, reference compound]
[16]; donor 1, 10 μM
  remaining at 2 h, 10 μM: 70 ± 10%

## Cc1sc2c(c1C)C(c1ccc(Cl)cc1)=NC(CC(=O)OC(C)(C)C)c1nnc(C)n1-2 (single isomer, unassigned; (+)) [(+)-JQ1, reference compound]
[25]
  effect on apoA-I production: very effective stimulator of apoA-I production
